PMC8218542, “Iodine-catalyzed electrophilic substitution of indoles: Synthesis of (un)symmetrical diindolylmethanes with a quaternary carbon center” (Beilstein Journal of Organic Chemistry, 2021)
“Also recorded” adds a separate entry of the source. Like-named read-outs stand apart in the source and are kept apart here.

Legend:
[1] = biological target: T1, Human CB1 receptor (Homo sapiens, UniProt P21554); assay: Radioligand binding assay vs [3H]CP55,940, membranes of CHO cells expressing human CB1; details: CHO cell membranes
Procedure: (§1) Radioligand b inding assays at CB1 and CB 2 receptors
(§2) Competition binding assays were performed using the CB receptor agonist radioligand [3H](−)- cis-3-[2-hydroxy-4-(1,1-dimethylheptyl)phenyl]-trans-4-(3-hydroxypropyl)-cyclohexanol as previously described [S1]. Briefly, membrane preparations of Chinese hamster ovary (CHO) cells stably expressing human CB1 or CB2 receptor were used (30 μg of protein/well for CB1 and 16 µg of protein/well for CB2-receptor preparations). All stock solutions of test compounds ([…]) were prepared in DMSO. After 2 h of incubation, a mixture containing 15 μL of the […]
(§3) mM MgCl2, 0.1% BSA, pH 7.4), 60 μL of membrane preparation (in 50 mM TRIS buffer) and 465 μL of assay buffer, were filtered through GF/C glass fiber filters (presoaked for 0.5 h in 0.3% aq. polyethyleneimine solution), using a Brandel 96-channel cell harvester (Brandel, Gaithersburg, MD). Radioactivity on the filters was then measured in a liquid scintillation counter (Topcount NXT, Packard/Perkin-Elmer) after 10 h of preincubation with 50 µl of scintillation cocktail (Multiscint 25, Perkin-Elmer). […]

[2] = biological target: T2, Human CB2 receptor (Homo sapiens, UniProt P34972); assay: Radioligand binding assay vs [3H]CP55,940, membranes of CHO cells expressing human CB2; parameters: expressed in transfected cells; membrane preparations; details: CHO cell membranes
Procedure: as §1, §2, §3

[3] = biological target: T2, Human CB2 receptor; assay: Trupath BRET2 functional assay in HEK293 cells transfected with human CB2; assay type: cell-based; parameters: expressed in transfected cells; host or cells: HEK293 cells, transient transfection (Lipofectamine 2000); receptor in pcDNA3.1(+); Trupath plasmids Addgene kit #1000000163; details: for agonistic activity at human CB2: agonist mode, BRET2
Procedure: (§4) Functional assays at CB1 and CB2 receptors
(§5) Functional assays of the selected compounds were assessed using the Trupath BRET 2 assay system as recently described [S2]. The Trupath plasmids were a gift from Bryan Roth’s Laboratory (Addgene kit #1000000163). Briefly, HEK293 cells were seeded in a 6 well-plate at adensity of 700.000 cells/well and incubated for 4h. Plasmids containing Gαi1-Rluc8, ß3 and γ9-GFP2 and either human CB 1 or CB2 in pcDNA3.1(+) at a ratio of 1:1:1:1 were mixed with Lipofectamine 2000 and transfected according to the manufacturer’s protocol. The cells were further incubated overnight, then harvested and seeded at a density of 40.000 cells/well in 96 well-plates with full growth medium, and cultured for another 24h. On the day of the […]
(§6) culture medium was carefully discarded and replaced by 60 µL of HBSS-HEPES buffer, followed by the addition of 10 µL of 50 µM Coelenterazine 400a. For testing of agonistic activity, the test compounds were added to the wells in a volume of 30 µL and incubated for 5 min. For antagonist testing, compounds were added in a volume of 15 µL, incubated for 5 min, […]
(§7) incubated for another 5 min. Test compounds were dissolved in DMSO and the final DMSO concentration in the assays was 1%. Finally, the signal was measured using a Mitras LB400 according to previously published literature[S3]. Data were obtained from 3-4independent experiments performed in duplicate.

[4] = biological target: T1, Human CB1 receptor; assay: Trupath BRET2 functional assay in HEK293 cells transfected with human CB1; assay type: cell-based; parameters: expressed in transfected cells; host or cells: HEK293 cells, transient transfection (Lipofectamine 2000); receptor in pcDNA3.1(+); Trupath plasmids Addgene kit #1000000163; details: for agonistic activity at human CB1: agonist mode, BRET2; for IC50: read-out: IC50, blockade of CB1 receptor activation
Procedure: as §4, §5, §6, §7

[5] = biological target: T1, Human CB1 receptor; parameters: method as in PMID 7565624; details: previously reported; cited from earlier work
[6] = biological target: T2, Human CB2 receptor; parameters: expressed in transfected cells; membrane preparations; method as in PMID 7565624; details: previously reported; cited from earlier work
[7] = tested on: CB1 receptors; parameters: method as in PMID 19286662; details: previously shown; cited from earlier work
[8] = tested on: control HEK293 cells; assay: Trupath BRET2 assay in control HEK293 cells transfected with only Gαi1-Rluc8, ß3 and γ9-GFP2; assay type: cell-based; details: cells without CB receptor

T1 sequence (P21554 whole entry): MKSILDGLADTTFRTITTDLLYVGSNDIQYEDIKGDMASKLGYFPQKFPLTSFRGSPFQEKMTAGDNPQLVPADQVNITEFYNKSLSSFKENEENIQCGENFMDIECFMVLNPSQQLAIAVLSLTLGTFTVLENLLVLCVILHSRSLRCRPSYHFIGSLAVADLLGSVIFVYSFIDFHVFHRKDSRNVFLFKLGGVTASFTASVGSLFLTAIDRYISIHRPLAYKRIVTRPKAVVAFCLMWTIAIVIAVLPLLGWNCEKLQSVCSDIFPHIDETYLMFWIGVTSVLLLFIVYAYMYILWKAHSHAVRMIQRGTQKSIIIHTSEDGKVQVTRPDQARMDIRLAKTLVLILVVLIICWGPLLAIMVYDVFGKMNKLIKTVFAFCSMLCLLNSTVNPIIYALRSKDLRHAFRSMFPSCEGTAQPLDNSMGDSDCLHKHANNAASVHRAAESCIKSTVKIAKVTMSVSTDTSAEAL
T2 sequence (P34972 whole entry): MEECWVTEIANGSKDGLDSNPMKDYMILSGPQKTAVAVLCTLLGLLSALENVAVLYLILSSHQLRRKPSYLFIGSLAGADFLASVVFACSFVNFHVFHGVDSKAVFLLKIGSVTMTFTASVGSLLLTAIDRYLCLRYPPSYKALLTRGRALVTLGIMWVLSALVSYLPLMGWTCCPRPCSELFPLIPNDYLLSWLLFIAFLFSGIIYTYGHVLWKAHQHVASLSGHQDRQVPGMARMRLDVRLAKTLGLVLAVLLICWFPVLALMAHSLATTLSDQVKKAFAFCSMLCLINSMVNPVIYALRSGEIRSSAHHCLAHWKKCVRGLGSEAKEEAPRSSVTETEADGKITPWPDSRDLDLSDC

Row | SMILES | Ki [1] [µM] | Ki [2] [µM] | also measured
1 | COc1ccc2[nH]cc(C(c3ccccc3)(c3c[nH]c4c(Br)cccc34)C(F)(F)F)c2c1 (stereo not shown) [3g] | 4.02 ± 0.22 | 4.62 ± 0.33 | 
2 | Fc1cc2[nH]cc(C(c3ccccc3)(c3c[nH]c4ccccc34)C(F)(F)F)c2cc1F (stereo not shown) [3n] | 2.04 ± 0.08 | 6.14 ± 0.13 | 
3 | COc1ccc2[nH]cc(C(c3ccccc3)(c3c[nH]c4cc(F)ccc34)C(F)(F)F)c2c1 (stereo not shown) [3e] | 3.21 ± 0.25 | 4.47 ± 0.12 | agonistic activity at human CB2 [3]: no agonistic activity; inhibition of CB2 receptor activation ([3]; antagonist mode, CP55,940 at its EC80, compared with CB1): weaker; inverse agonistic activity (effect on basal activity) at CB1 ([4]; BRET2, HEK293): reduced the basal activity; also recorded: inverse agonistic activity; agonistic activity at human CB1 [4]: no agonistic activity; IC50 [4]: 5.68 ± 0.54 µM; EC50 ([4]; reduction of basal activity, BRET2, HEK293, read-out: EC50, inverse agonist at CB1 receptors): 0.786 ± 0.233 µM
4 | c1ccc2c(Cc3c[nH]c4ccccc34)c[nH]c2c1 [I, diindolylmethane] |  |  | Ki [5]: 4.3 µM; Ki [6]: 1.1 µM; functional activity at CB1 receptors [7]: weak inverse agonist
5 | COc1ccc2[nH]cc(C(c3ccccc3)(c3c[nH]c4ccccc34)C(F)(F)C(F)(F)F)c2c1 (stereo not shown) [3ad] | 1.82 ± 0.09 | 11.2 ± 0.5 | agonistic activity at human CB2 [3]: no agonistic activity; effect in non-transfected control cells [8]: did not show any effect; inverse agonistic activity (effect on basal activity) at CB1 ([4]; BRET2, HEK293): less pronounced; also recorded: inverse agonistic activity; agonistic activity at human CB1 [4]: no agonistic activity; IC50 [4]: 5.22 ± 0.68 µM
6 | COc1ccc2[nH]cc(C(c3ccccc3)(c3c[nH]c4cc(F)c(F)cc34)C(F)(F)F)c2c1 (stereo not shown) [3h] | 4.78 ± 1.26 | 9.9 ± 1.45 | 
7 | COc1ccc2[nH]cc(C(c3ccccc3)(c3c[nH]c4ccccc34)C(F)(F)F)c2c1 (stereo not shown) [3a, 5-methoxy-3-(2,2,2-trifluoro-1-(1H-indol-3-yl)-1-phenylethyl)-1H-indole] | 4.23 ± 0.03 | 6.04 ± 0.11 | 
8 | COc1ccc2[nH]cc(C(c3ccccc3)(c3c[nH]c4cccc(OC)c34)C(F)(F)F)c2c1 (stereo not shown) [3b] | 7.64 ± 0.8 | 4.75 ± 0.34 | 
